One experiment relates to Tetrahymena. Description: Protozoacidal activity against Tetrahymena. It counts as functional.
In experiment [1] the target is T1, Tyrosine-protein kinase Lyn (Homo sapiens, UniProt P07948). As to the kind of experiment: Inhibition of Lyn (unknown origin) at 0.1 mM using Src-family kinase bisamide rhodamine 110 peptide substrate after 1 hr by fluorescence assay relative to control.
Target sequence in this assay (P07948 2-512 limits assumed): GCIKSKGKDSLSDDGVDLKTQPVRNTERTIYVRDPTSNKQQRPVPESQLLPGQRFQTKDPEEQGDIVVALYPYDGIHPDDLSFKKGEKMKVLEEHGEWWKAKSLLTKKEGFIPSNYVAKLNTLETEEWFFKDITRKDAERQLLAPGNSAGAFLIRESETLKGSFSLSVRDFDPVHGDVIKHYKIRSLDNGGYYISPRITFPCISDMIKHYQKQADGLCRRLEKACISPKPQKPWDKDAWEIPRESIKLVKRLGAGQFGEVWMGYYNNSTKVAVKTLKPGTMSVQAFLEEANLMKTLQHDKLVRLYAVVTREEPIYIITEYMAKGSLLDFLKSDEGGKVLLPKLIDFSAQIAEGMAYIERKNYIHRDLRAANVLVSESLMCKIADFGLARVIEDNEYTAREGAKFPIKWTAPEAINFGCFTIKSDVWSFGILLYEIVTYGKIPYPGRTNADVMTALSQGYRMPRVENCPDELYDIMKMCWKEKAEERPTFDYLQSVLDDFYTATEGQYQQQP
Experiment [2] has as its target T2, Tyrosine-protein kinase Fyn (Homo sapiens, UniProt P06241). As to the kind of experiment: Inhibition of Fyn (unknown origin) at 0.1 mM using Src-family kinase bisamide rhodamine 110 peptide substrate after 1 hr by fluorescence assay relative to control.
Target sequence in this assay (P06241 2-537 limits assumed): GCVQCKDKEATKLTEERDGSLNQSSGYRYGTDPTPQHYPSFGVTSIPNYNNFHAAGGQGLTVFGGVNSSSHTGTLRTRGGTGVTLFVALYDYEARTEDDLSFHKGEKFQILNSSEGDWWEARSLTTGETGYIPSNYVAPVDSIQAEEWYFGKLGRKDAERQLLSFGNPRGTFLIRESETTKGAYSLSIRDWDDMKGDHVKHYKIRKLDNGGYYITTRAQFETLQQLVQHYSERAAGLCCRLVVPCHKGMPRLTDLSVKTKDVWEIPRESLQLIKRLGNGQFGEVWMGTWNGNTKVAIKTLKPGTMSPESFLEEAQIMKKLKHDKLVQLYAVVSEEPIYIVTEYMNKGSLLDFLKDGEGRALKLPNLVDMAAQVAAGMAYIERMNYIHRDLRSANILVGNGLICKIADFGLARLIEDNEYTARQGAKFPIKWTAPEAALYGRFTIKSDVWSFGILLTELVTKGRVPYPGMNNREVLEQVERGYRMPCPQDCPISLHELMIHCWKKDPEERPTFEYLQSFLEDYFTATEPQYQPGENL
Experiment [3] deals with Proto-oncogene tyrosine-protein kinase Src (Homo sapiens) (UniProt P12931). Description: Inhibition of Src (unknown origin) at 0.1 mM using Src-family kinase bisamide rhodamine 110 peptide substrate after 1 hr by fluorescence assay relative to control.
Chain of Proto-oncogene tyrosine-protein kinase Src (Homo sapiens) (P12931 2-536 limits assumed): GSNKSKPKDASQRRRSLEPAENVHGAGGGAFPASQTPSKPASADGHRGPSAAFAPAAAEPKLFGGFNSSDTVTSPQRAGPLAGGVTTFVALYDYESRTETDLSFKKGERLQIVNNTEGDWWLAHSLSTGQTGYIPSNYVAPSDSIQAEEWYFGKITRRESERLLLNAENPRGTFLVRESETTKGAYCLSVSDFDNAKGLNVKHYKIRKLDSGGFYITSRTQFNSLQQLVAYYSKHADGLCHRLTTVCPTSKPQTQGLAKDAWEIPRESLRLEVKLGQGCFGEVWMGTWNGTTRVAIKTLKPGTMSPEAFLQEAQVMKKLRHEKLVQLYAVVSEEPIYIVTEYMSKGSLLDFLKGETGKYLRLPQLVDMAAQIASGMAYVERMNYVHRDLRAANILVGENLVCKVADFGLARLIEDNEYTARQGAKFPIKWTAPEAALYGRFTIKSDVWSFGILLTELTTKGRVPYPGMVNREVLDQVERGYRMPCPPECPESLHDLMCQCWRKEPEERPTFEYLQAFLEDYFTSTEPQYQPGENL
For experiment [4], the system named is Rattus norvegicus. As to the kind of experiment: Inhibition of LPS-induced TNFalpha level in Sprague-Dawley rat serum at 25 mg/kg, po pretreated for 1 hr followed by LPS treatment measured after 90 mins by ELISA relative to control. In kind it is functional. In general terms: In an ELISA, binding on a coated surface is turned into a signal by an enzyme label.

Experiment [5] concerns the target T1, Tyrosine-protein kinase Lyn. As to the kind of experiment: Inhibition of Lyn (unknown origin) using Src-family kinase bisamide rhodamine 110 peptide substrate after 1 hr by fluorescence assay.
Target sequence in this assay (P07948 whole entry): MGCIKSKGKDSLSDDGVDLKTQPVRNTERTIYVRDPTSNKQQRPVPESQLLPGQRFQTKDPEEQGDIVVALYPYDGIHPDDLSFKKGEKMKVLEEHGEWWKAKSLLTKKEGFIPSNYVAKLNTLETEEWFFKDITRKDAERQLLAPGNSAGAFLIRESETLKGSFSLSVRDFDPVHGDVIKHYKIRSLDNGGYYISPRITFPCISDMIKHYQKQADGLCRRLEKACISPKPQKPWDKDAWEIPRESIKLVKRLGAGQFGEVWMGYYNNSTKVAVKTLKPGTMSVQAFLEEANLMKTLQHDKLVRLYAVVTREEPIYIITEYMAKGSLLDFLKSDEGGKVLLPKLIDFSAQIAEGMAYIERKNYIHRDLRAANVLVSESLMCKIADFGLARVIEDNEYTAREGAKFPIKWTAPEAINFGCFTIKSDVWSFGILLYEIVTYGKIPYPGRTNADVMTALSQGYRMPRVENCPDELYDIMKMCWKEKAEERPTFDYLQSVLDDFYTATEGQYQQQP
Experiment [6] relates to unidentified influenza virus. Description: Antiviral activity against Influenza virus H5N1. In kind it is functional.
The test system of the next experiment is HL-60. Description: Antiproliferative activity against human HL60 cells. In kind it is functional, cell-based.
Another experiment relates to Jurkat E6.1. Description: Antiproliferative activity against human Jurkat E6-1 cells. It counts as functional, cell-based.
The test system of experiment [7] is Rattus norvegicus. Description: Anti-hyperglycemic activity in Wistar albino rat sucrose loaded model assessed as reduction in blood glucose level at 4 mg/kg equiv of glimepiride pretreated orally for 30 mins followed by sucrose challenge and measured up to 120 mins post sucrose challenge relative to control. It counts as functional. Further details: scale not given: the % may be the effect or the level left.

In experiment [8] the test system is Rattus norvegicus. As to the kind of experiment: Anti-hyperglycemic activity in streptozotocin-induced Wistar albino rat diabetic model assessed as reduction in blood glucose level at 4 mg/kg equiv of glimepiride treated orally measured up to 6 hrs post dose by glucometric method relative to control. It counts as functional. Also on record: scale not given: the % may be the effect or the level left.

A further experiment concerns Escherichia coli. As to the kind of experiment: Antibacterial activity against Escherichia coli. It counts as functional.
Another experiment has as its system Newcastle disease virus. As to the kind of experiment: Antiviral activity against Newcastle disease virus. In kind it is functional. As to conditions: avian paramyxovirus 1.
The next experiment relates to Salmonella typhimurium. As to the kind of experiment: Antibacterial activity against Salmonella typhimurium. The following applies: Salmonella enterica. It counts as functional, Salmonella enterica subsp. enterica serovar Typhimurium.
In experiment [9] the target is T2, Tyrosine-protein kinase Fyn. As to the kind of experiment: Inhibition of Fyn (unknown origin) using Src-family kinase bisamide rhodamine 110 peptide substrate after 1 hr by fluorescence assay.
Target sequence in this assay (P06241 whole entry): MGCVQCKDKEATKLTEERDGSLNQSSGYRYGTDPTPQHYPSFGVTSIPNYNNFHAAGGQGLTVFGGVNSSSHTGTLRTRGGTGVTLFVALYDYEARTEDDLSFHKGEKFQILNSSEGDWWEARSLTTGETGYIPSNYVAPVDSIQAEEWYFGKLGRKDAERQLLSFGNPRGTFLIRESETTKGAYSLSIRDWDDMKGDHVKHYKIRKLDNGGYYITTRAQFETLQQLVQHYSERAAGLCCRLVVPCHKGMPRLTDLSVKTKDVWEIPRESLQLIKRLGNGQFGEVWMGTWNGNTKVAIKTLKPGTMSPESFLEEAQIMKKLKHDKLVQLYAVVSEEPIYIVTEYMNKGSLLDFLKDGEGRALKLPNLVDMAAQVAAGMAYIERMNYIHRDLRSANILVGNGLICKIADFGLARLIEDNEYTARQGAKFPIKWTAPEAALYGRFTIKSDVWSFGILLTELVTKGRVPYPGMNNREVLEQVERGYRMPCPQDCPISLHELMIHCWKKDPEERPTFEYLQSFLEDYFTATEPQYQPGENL

≈ marks a conversion by molar mass, not a printed value.

On to `C[C@H](Nc1ncnc2[nH]c(-c3ccc(O)cc3)cc12)c1ccccc1`, for which the MIC against Tetrahymena stood at 8 µg/mL (≈ 24.2 µM).

Usually inhibition stands for how much of the control response was suppressed. For `Cc1ccc(C(=O)NCc2c[nH]c3nc(N)[nH]c(=O)c23)s1`, the inhibition in experiment [1] was 40%; in experiment [2], 41%; in experiment [3], 71%.

The inhibition in vivo is how much of the control response was suppressed. Consider `CCOc1ccc(NC(=O)Cn2cnc3c(cc(-c4ccccc4)n3-c3ccncc3)c2=O)cc1`, for which the inhibition in vivo at 25 mg/kg in the experiment on Rattus norvegicus [4] was 96%.

With `Nc1nc2[nH]cc(CNC(=O)COc3ccc(Cl)cc3)c2c(=O)[nH]1`, the inhibition in experiment [1] came to 28%; in [2], 36%; in experiment [3] it was 60%. Usually IC50 stands for the concentration needed to halve the response being measured. Consider `COc1cccc(-c2cn(-c3ccc(CCN4CCC(O)CC4)cc3)c3ncnc(N)c23)c1`, for which, in [5], 0.4 nM corresponded to half-maximal inhibition (IC50). On to `C[C@@H](Nc1ncnc2[nH]c(-c3ccc(O)cc3)cc12)c1cccc2ccccc12`, for which the MIC in the experiment on Tetrahymena came to 32 µg/mL (≈ 84.1 µM). In turn, `O=c1c2cc(-c3ccccc3)n(-c3ccccc3)c2ncn1CCOCCO` gave an MIC in experiment [6] of 3.8 µg/mL (≈ 10.1 µM). On to `Nc1ccn([C@@H]2O[C@H](CO)[C@@H](O)[C@@H]2O)c(=O)n1` [CYTARABINE], for which the 50% inhibitory concentration (IC50) in the experiment on HL-60 worked out at 0.185 µM; with Jurkat E6.1, 0.018 µM. `O=c1c2cc(-c3ccccc3)n(-c3ccccc3)c2ncn1CC(O)CO` (centres undefined): the MIC in experiment [6] is 3.6 µg/mL (≈ 9.96 µM). `C[C@@H]1C[C@H]2[C@@H]3CCC4=CC(=O)C=C[C@]4(C)[C@@]3(F)[C@@H](O)C[C@]2(C)[C@@]1(O)C(=O)CO` [DEXAMETHASONE]: the inhibition in vivo at 25 mg/kg in the experiment with Rattus norvegicus [4] is 91%.

`COc1ccc(-c2cc3c(N[C@H](C)c4cccc5ccccc45)ncnc3[nH]2)cc1` came in with an MIC in the experiment with Tetrahymena of 32 µg/mL (≈ 81.1 µM).

In turn, `O=c1c2cc(-c3ccc(Br)cc3)n(-c3ccccc3)c2ncn1CCOCCO` came in with an MIC in experiment [6] of 4.5 µg/mL (≈ 9.9 µM). As to `Cc1nc(Cl)c2c(-c3ccccc3)c(-c3ccccc3)n(-c3c(C)n(C)n(-c4ccccc4)c3=O)c2n1`, the Activity with Rattus norvegicus [7] was determined as 13%; in the experiment on Rattus norvegicus [8], 11.2%. The compound `O=c1c2cc(-c3ccc(Br)cc3)n(-c3ccccc3)c2ncn1CC(O)CO` (centres undefined) registered an MIC in experiment [6] of 4.1 µg/mL (≈ 9.31 µM). For the compound `O=c1[nH]cnc2c1cc(-c1ccccc1)n2-c1ccccc1`, the MIC was determined as 2.8 µg/mL (≈ 9.75 µM) in the experiment with Escherichia coli, 2.7 µg/mL (≈ 9.4 µM) against Newcastle disease virus and 2.8 µg/mL (≈ 9.75 µM) in the experiment with Salmonella typhimurium. As to `COc1ccc(CCCC(=O)NCc2c[nH]c3nc(N)[nH]c(=O)c23)cc1OC`, the figures for the inhibition in experiment [1], in [2] and in experiment [3] were 32%, 38% and 54%, respectively. Regarding `C[C@H](Nc1ncnc2[nH]c(-c3ccc(O)cc3)cc12)c1ccc(Br)cc1`, the MIC in the experiment on Tetrahymena was 8 µg/mL (≈ 19.5 µM). In experiment [9], `CN1CCN([C@H]2CC[C@H](n3cc(-c4ccc(Oc5ccccc5)cc4)c4c(N)ncnc43)CC2)CC1` showed an IC50 of 0.3 nM. Regarding `NC(=O)c1ncn([C@@H]2O[C@H](CO)[C@@H](O)[C@H]2O)n1` [RIBAVIRIN], the MIC in experiment [6] is 6 µg/mL (≈ 24.6 µM); in the experiment with Newcastle disease virus, 3 µg/mL (≈ 12.3 µM). `O=c1[nH]cnc2c1cc(-c1ccc(Cl)cc1)n2-c1ccccc1`: the MIC in the experiment on Escherichia coli and against Salmonella typhimurium was 3.2 µg/mL (≈ 9.95 µM) in each case. Turning to `CCCCCc1ccc(-c2cc3cn([C@@H]4O[C@H](CO)[C@@H](O)[C@@H]4O)c(=O)nc3[nH]2)cc1`, the 50% inhibitory concentration (IC50) with HL-60 was 68 µM; in the experiment with Jurkat E6.1, 61 µM.

The record behind these values is ChEMBL document CHEMBL4270610, “Pyrrolopyrimidines: An update on recent advancements in their medicinal attributes” (Eur J Med Chem, 2018).
